Patent publication US20220312815A1, “NATURAL FOOD ANTIOXIDANT AND METHOD FOR PREPARING THE SAME” (Lanzhou Universty, priority 2019, published 2022)
Marks after values point to notes of the source that are not given here.

Columns and labels:
[1] = Antioxidative activity of superoxide anions (PMS-NADH-NBT system method); type: biochemical; conditions: absorbance at 560 nm after 5 min, pH7.4 phosphate buffer
Description: The determination of antioxidative activity of superoxide anions: O2-• was a free radicals with a longer life in a body. In free radical chain reaction. O2-• acted as an initiator to promote the generation of other free radicals, causing further harm to the body, which was closely related to many diseases. Therefore, the ability of the sample to remove O2-• was usually used as an important indicator of the activity of an antioxidative substance. Flavonoid and a sample of flavonoid and polysaccharide mixed that was prepared in Embodiment 1 were all prepared with 70% ethyl alcohol. A polysaccharide sample, positive control vitamin C (Vc) and vitamin E (Ve) were prepared with distilled water. 1.280 mg/mL stock solution was prepared with each substance to be tested and then diluted for 7 concentration gradients for later use. A PMS-NADH-NBT system method was used to determine the activity of scavenging superoxide anions (O2-•). […] When being added to the PMS-NADH-NBT system, an antioxidative substance inhibited the reaction of O2-• with NBT. By measuring absorbency, the ability to scavenge free radicals of antioxidant could be calculated. […] A light absorption value of the solution was measured at 560 nm after 5 min. […]

[2] = Antioxidative activity of DPPH (DPPH free radical scavenging); type: biochemical; conditions: absorbance at 519 nm after 30 minutes in dark at room temperature; mean of 3 repeats
Description: Antioxidative activity of DPPH: DPPH belonged to a synthetic stable free radical, which has characteristic absorption in a visible light region. A method for measuring DPPH was simple and fast and had good reproducibility. Flavonoid and a sample of flavonoid and polysaccharide mixed that was prepared in Embodiment 1 were all prepared with 70% ethyl alcohol. The polysaccharide sample, positive control vitamin C (Vc) and vitamin E (Ve) were prepared with distilled water. 1.280 mg/mL stock solution was prepared with each substance to be tested and diluted for 7 concentration gradients for later use. 75 μL of a solution in each concentration to be tested was precisely added to a 96-ferment plate, and then added with 150 μL of 0.1 m MDPPH 70% ethyl alcohol solution. A blank control was set for each reaction hole of each concentration. The blank control was 75 μL of the solution to be tested and 150 μL of 70% ethyl alcohol. The total volume of reaction was 225 μL. The solution was shook well, and kept standing in dark at room temperature for 30 minutes. […] A decrease in absorbency indicated an increase in free radical scavenging activity. Each sample was repeated 3 times for each concentration. Scavenging rate=[A0-(A1-A2)]/A0 A0 was a light absorption value of the DPPH solution plus a solution to be tested at a concentration of zero. […]

Structure (SMILES) | IC50 of O2-· [1] | IC50 of DPPH [2]
O=C1O[C@H]([C@@H](O)CO)C(O)=C1O [Vc, vitamin C] | 208.83 ± 10.41^d μg/mL | 2.95 ± 0.39^a μg/mL
Cc1c(C)c2c(c(C)c1O)CC[C@@](C)(CCC[C@H](C)CCC[C@H](C)CCCC(C)C)O2 [Ve, vitamin E] | 353.33 ± 4.16^e μg/mL | 5.33 ± 0.45^a μg/mL
